# Experimental data: patent US20050192261A1, “Methods and reagents for the treatment of immunoinflammatory disorders” (priority 2003, published 2005)
# Read-outs that look alike come from different tables or passages of the source.
# Test system: TNFα secretion in white blood cells from human buffy coat stimulated with phorbol 12-myristate 13-acetate and ionomycin
# Assay: TNFα secretion assay
# Conditions: Homo sapiens; for inhibition at 0.5 µM: read-out: % inhibition of TNFα secretion, Rolipram 0.5 μM; for inhibition at 1 µM: read-out: % inhibition of TNFα secretion, Rolipram 1 μM
# [1] = Bromodiphenhydramine HCl μM r5-r13: 0,0.21,0.43,0.85,1.7,3.4,6.8,14,27
# [2] = Cyproheptadine HCl μM r5-r13: 0,0.24,0.48,0.96,1.9,3.9,7.7,15,31
# [3] = Loratadine μM r5-r13: 0,0.2,0.41,0.82,1.6,3.3,6.5,13,26
# [4] = Thiethylperazine Maleate μM r5-r13: 0,0.2,0.39,0.78,1.6,3.1,6.3,13,25
# Procedure: Drugs were added to the indicated concentration. […] The plate was then washed again with 0.1% Tween 20/PBS. An HRP-luminescent substrate was added to each well, and the light intensity of each well was measured using a plate luminometer.
smiles,measurement,setting,value
COc1ccc(C2CNC(=O)C2)cc1OC1CCCC1 (centres unmarked) [Rolipram],inhibition at 0.5 µM,[1],37%
same,inhibition at 0.5 µM,[2],44%
same,inhibition at 0.5 µM,[3],43%
same,inhibition at 0.5 µM,[4],38%
same,inhibition at 1 µM,[1],44%
same,inhibition at 1 µM,[2],38%
same,inhibition at 1 µM,[3],50%
same,inhibition at 1 µM,[4],39%
